For one assay, the system named is CFTR-Y122X. The assay is described as follows: CFTR-Y122X assay (dual reporter isogenic Hek293 cell lines, Renilla luminescence readthrough). It is filed as cell-based. The conditions noted are these: for Emax / AC50 / Amax: nonsense mutation suppression, 24 h incubation, tested up to 100 μM; for Emax / Amax: 100% = 14 mM paromomycin; for Emax: read-out: Amax. The source says:
Activity of compounds of the present invention was examined in recombinant, dual reporter isogenic Hek293 cell lines (“CFTR-Y122X assay”). The engineered reporter constructs contained the 18 bp sequence stretch corresponding to a common Y122X PTC mutation in CFTR class I mutant patients (see Sermet-Gaudelus, BMC Medicine, 2007, 5(5)). Instead of a tyrosine (Y) in position 122 of the CFTR protein a TGA stop codon interrupts the open reading frame (Y122X) of the corresponding mRNA. This TGA stop codon triplet (followed by the pyrimidine base cytosine) is permissive to aminoglycoside mediated translational readthrough which served as positive control for high throughput screening. A corresponding TAA stop codon variant and a wildtype non mutated construct was used for confirmation and counter screening. The CFTR sequence was sandwiched between an eGFP reporter, and a triple myc tag sequence fused to a full length Renilla reporter. All sequences, including an intron containing one positioned pre-eGFP (b-globin intron) were cloned in frame. The corresponding expression constructs were stably expressed in the isogenic HEK-R4 cell host (Invitrogen Incorp.) and selected by blasticidin resistance. The isogenic integration of the construct minimizes gene dose effects and improves assay reproducibility. Stably integrated single cell derived clones were selected and characterized for aminoglycoside mediated readthrough. […] Readthrough of Y122X accumulates an intracellular localized fusion protein approximately 65.5 kDa in size as controlled by western blot analysis and immunofluorescence using an anti-renilla antibody. The eGFP reporter pre-PTC mutation serves as visual control for genetic stability of the screening clones and minimizes protein degradation of small fusion protein amounts. In the assay, compound concentration was 10 μM. In miniaturized 1536 well format 2000 cells were dispensed in 4 μl/well and incubated for 24 h at 37° C., 5% CO2. 40 nl compounds were placed on the cells with control wells containing 1 ul Paramomycin and 14.4 mM final concentration. Compounds were incubated for 24 h. Renilla Glo substrate (2.5 ul) was added and plates were centrifuged and processed for luminescence measurement using various readers. Activity calculation was done using the equation: A1(%)=100*(S−NC)/(AC−NC) where AC, NC and S correspond to active controls (injection of Stimulation buffer=100% stimulation), neutral controls (buffer injection which Iloprost EC10) and screening samples (S). NC corresponds to 0% activity whereas AC is 100% activity (14 mM paromomycin). False positive artifacts were removed in confirmation and validation screening using the same assay format followed by counterscreening using the respective wildtype construct (w/o PTC mutation) cell model. Compounds were tested up to 100 μM compound concentration.

The subject of assay [1] is alpha-L-Iduronidase W402X in Hurler patient derived fibroblast cells. The assay is described as follows: Hurler patient derived fibroblast cell cultures, restored alpha-L-iduronidase activity (W402X readthrough). It is filed as cell-based, human. The conditions noted are these: 8 days incubation, highest concentration 20 uM; for Emax / AC50: Homo sapiens, Fibroblast, 192 h; for Emax / Amax: 14 mM paromomycin = 100% control; for Emax: read-out: Amax; for AC50: 8 point dilutions. The source says: Activity of compounds of the present invention was examined in patient derived fibroblast cells. The genotyped cells were derived from the Coriell Institute (# GM00798) and contain an in frame homozygous TGG to TAG change at nucleotide 1293 of exon 9 which results in a W402X mutation. The W402X mutation is one of the most common Hurler syndromes causing loss of function mutation. Between 60-70% of genotyped patients contain either the Q70X and/or the W402X in mutation and are classified as severe MPSI patients. This TAG stop codon triplet is permissive to aminoglycoside mediated translational readthrough which served as activity control for compound testing. Readthrough of W402X restores alpha-L-Iduronidase activity which results in removal of lysosomal accumulated Glycosaminoglycan's. Iduronidase expression could neither be detected by Taqman PCR© nor by enzyme activity or ELISA methods without compound stimulation. Compounds were tested in concentration response mode. Therefore 5000 patient cells/40 ul/well in 384 well plates were used. Compound dilutions were derived from freshly prepared 10 mM compound stock solutions. Highest concentration was 20 uM and subsequently diluted 1: 3.16 (8 point dilutions, n=4). Final DMSO concentration was below 0.5% and tested to be without effect on cell viability, growth and readthrough. Cells were incubated for 8 days with one cell media and compound exchange at day 3. Thereafter cell media was removed and cells were lysed (0.4 M Sodiumformate, 0.1% NaN3, 0.9% NaCl, 0.2% Triton, pH 3.5). Restored alpha-L-iduronidase activity in cell lysates was measured with the fluorescent 4-MU iduronide substrate (5 ul of 0.4 mM 4 Methylumbelliferyl alpha-L-iduronide/well) after 48 h incubation. Paromomycin was used as reference control (14 mM=100% control).

SMILES strings stand for the structures. pEC50: −log10 of the molar value. Read-outs that look alike come from different tables or passages of the source.

`CCSc1nc2c(c(=O)n1-c1ccccc1)C(=O)C1CCCC1N2` (centres unmarked) [2-(ethylthio)-3-phenyl-5a,6,7,8,8a,9-hexahydro-3H-cyclopenta[5,6]pyrido[2,3-d]pyrimidine-4,5-dione]: in the assay with CFTR-Y122X (at the above dose ranges (up to 100 μM)), the “suppression relative to paromomycin reference activity” value is listed as “less than 5%”.

Take `CC(C)c1nc2c(c(=O)c3sccc3n2C)c(=O)n1-c1ccccc1` [Example 1.1, 2-isopropyl-9-methyl-3-phenylthieno[2′,3′:5,6]pyrido[2,3-d]pyrimidine-4,5(3H,9H)-dione]: in the assay with CFTR-Y122X (Homo sapiens, HEK293), the Emax is 247% and the activity was half-maximal at 2.2 µM (AC50). In assay [1], the Emax amounted to 25% and the AC50 was 12 µM.

In the assay with CFTR-Y122X, `Cc1cc2c(=O)c3c(=O)n(-c4ccccc4)c(C(C)C)nc3n(C)c2s1` [Example 1.2, 2-isopropyl-7,9-dimethyl-3-phenylthieno[3′,2′:5,6]pyrido[2,3-d]pyrimidine-4,5(3H,9H)-dione] registered an Amax of 249% and an AC50 of 13 µM. Moreover, in assay [1], the Amax is 59% and the half-maximal activity concentration (AC50) worked out at 17 µM.

As for `Cc1cc2c(=O)c3c(=O)n(-c4ccccc4)c(C4CCC4)nc3[nH]c2s1` [Example 2.1, 2-cyclobutyl-7-methyl-3-phenylthieno[3′,2′:5,6]pyrido[2,3-d]pyrimidine-4,5(3H,9H)-dione], in the assay with CFTR-Y122X (Homo sapiens, HEK293, 24 h), the Emax was found to be 211% and the activity was half-maximal at 12 µM (AC50). Further, in assay [1], the Emax is 42% and the AC50 is 12 µM.

For `Cc1cc2c(=O)c3c(=O)n(-c4ccccc4)c(C4CCC4)nc3n(CCN)c2s1` [Example 2.2, 9-(2-aminoethyl)-2-cyclobutyl-7-methyl-3-phenylthieno[3′,2′:5,6]pyrido[2,3-d]pyrimidine-4,5(3H,9H)-dione], in the assay on CFTR-Y122X (Homo sapiens, HEK293, 24 h), the Emax was determined as 343% and the AC50 was determined as 4.3 µM. In assay [1], the Emax came out at 162% and the AC50 was 6.9 µM.

Regarding `Cc1cc2c(s1)c(=O)c1c(=O)n(-c3ccccc3)c(C(C)C)nc1n2C` [Example 2.3, 2-isopropyl-7,9-dimethyl-3-phenylthieno[2′,3′:5,6]pyrido[2,3-d]pyrimidine-4,5(3H,9H)-dione], in the assay on CFTR-Y122X (Homo sapiens, HEK293, 24 h), the Emax was 169% and the AC50 is 14 µM. The Emax in assay [1] was determined as 39%.

Take `Cc1cc2c(=O)c3c(=O)n(-c4ccccc4)c(C(C)C)nc3n(C)c2s1` [Example 2.4, 2-isopropyl-7,9-dimethyl-3-phenylthieno[3′,2′:5,6]pyrido[2,3-d]pyrimidine-4,5(3H,9H)-dione]: the AC50 in the assay on CFTR-Y122X (Homo sapiens, HEK293, 24 h) is 11 µM. Besides, the Amax with CFTR-Y122X turned out to be 299%; in assay [1], 13%.

For the compound `CC(C)c1nc2[nH]c3cscc3c(=O)c2c(=O)n1-c1ccccc1` [Example 2.5, 2-isopropyl-3-phenylthieno[3′,4′:5,6]pyrido[2,3-d]pyrimidine-4,5(3H,9H)-dione], the Emax is 113% with CFTR-Y122X (Homo sapiens, HEK293, 24 h) and 16% in assay [1]. The AC50 in the assay with CFTR-Y122X (Homo sapiens, HEK293, 24 h) stood at 23 µM; in assay [1], 1.1 µM.

Turning to `CC(C)c1nc2[nH]c3sccc3c(=O)c2c(=O)n1-c1ccccc1` [Example 2.6, 2-isopropyl-3-phenylthieno[3′,2′:5,6]pyrido[2,3-d]pyrimidine-4,5(3H,9H)-dione], the Emax with CFTR-Y122X (Homo sapiens, HEK293, 24 h) was determined as 97%; in assay [1] it was 6%. In the assay with CFTR-Y122X (Homo sapiens, HEK293, 24 h), the AC50 worked out at 16 µM.

For `CC(C)c1nc2[nH]c3ccsc3c(=O)c2c(=O)n1-c1ccccc1` [Example 2.7, 2-isopropyl-3-phenylthieno[2′,3′:5,6]pyrido[2,3-d]pyrimidine-4,5(3H,9H)-dione], in the assay with CFTR-Y122X (Homo sapiens, HEK293, 24 h), the Emax stood at 332% and half-maximal activity (AC50) was put at 6.9 µM. For the same compound, in assay [1], the Emax came out at 51% and the AC50 worked out at 10 µM.

On to `Cc1cc2[nH]c3nc(C(C)C)n(-c4ccccc4)c(=O)c3c(=O)c2s1` [Example 2.8, 2-isopropyl-7-methyl-3-phenylthieno[2′,3′:5,6]pyrido[2,3-d]pyrimidine-4,5(3H,9H)-dione], for which, in the assay on CFTR-Y122X (Homo sapiens, HEK293, 24 h), the Emax is 225% and the AC50 was determined as 7.9 µM. Besides, in assay [1], the Emax is 65% and the AC50 stood at 10 µM.

`Cc1cc2c(=O)c3c(=O)n(-c4ccccc4)c(C4CCC4)nc3n(C)c2s1` [Example 2.9, 2-cyclobutyl-7,9-dimethyl-3-phenylthieno[3′,2′:5,6]pyrido[2,3-d]pyrimidine-4,5(3H,9H)-dione]: the Emax in the assay with CFTR-Y122X (Homo sapiens, HEK293, 24 h) amounted to 207%; in assay [1], 96%. The concentration at half-maximal activity (AC50) in the assay with CFTR-Y122X (Homo sapiens, HEK293, 24 h) was 2.2 µM; in assay [1], 3.7 µM.

With `Cn1c2nc(C3CCC3)n(-c3ccccc3)c(=O)c2c(=O)c2ccsc21` [Example 2.10, 2-cyclobutyl-9-methyl-3-phenylthieno[3′,2′:5,6]pyrido[2,3-d]pyrimidine-4,5(3H,9H)-dione], in the assay on CFTR-Y122X (Homo sapiens, HEK293, 24 h), the Emax was determined as 393% and the concentration at half-maximal activity (AC50) came out at 2 µM. In addition, in assay [1], the Emax was determined as 167% and the AC50 was determined as 5.5 µM.

For the compound `Cn1c2ccsc2c(=O)c2c(=O)n(-c3ccccc3)c(C3CCC3)nc21` [Example 2.11, 2-cyclobutyl-9-methyl-3-phenylthieno[2′,3′:5,6]pyrido[2,3-d]pyrimidine-4,5(3H,9H)-dione], in the assay with CFTR-Y122X (Homo sapiens, HEK293, 24 h), the Emax was determined as 157% and the activity was half-maximal at 2 µM (AC50). Moreover, in assay [1], the Emax was found to be 152% and the activity was half-maximal at 4.5 µM (AC50).

Consider `Cc1cc2c(s1)c(=O)c1c(=O)n(-c3ccccc3)c(C3CCC3)nc1n2C` [Example 2.12, 2-cyclobutyl-7,9-dimethyl-3-phenylthieno[2′,3′:5,6]pyrido[2,3-d]pyrimidine-4,5(3H,9H)-dione], for which, in the assay on CFTR-Y122X (Homo sapiens, HEK293, 24 h), the Emax was found to be 133% and the concentration at half-maximal activity (AC50) came to 3 µM. In assay [1], the Emax was 138% and the AC50 worked out at 9 µM.

Consider `CCc1cc2c(=O)c3c(=O)n(-c4ccccc4)c(C4CCC4)nc3n(C)c2s1` [Example 2.13, 2-cyclobutyl-7-ethyl-9-methyl-3-phenylthieno[3′,2′:5,6]pyrido[2,3-d]pyrimidine-4,5(3H,9H)-dione], for which, in the assay with CFTR-Y122X (Homo sapiens, HEK293, 24 h), the Emax stood at 118% and the activity was half-maximal at 6.1 µM (AC50). Besides, in assay [1], the Emax was determined as 66% and the activity was half-maximal at 16 µM (AC50).

As to `Cc1csc2c1c(=O)c1c(=O)n(-c3ccccc3)c(C3CCC3)nc1n2C` [Example 2.14, 2-cyclobutyl-6,9-dimethyl-3-phenylthieno[3′,2′:5,6]pyrido[2,3-d]pyrimidine-4,5(3H,9H)-dione], in the assay on CFTR-Y122X (Homo sapiens, HEK293, 24 h), the Emax was found to be 114% and half-maximal activity (AC50) was put at 13 µM. Moreover, in assay [1], the Emax is 10%.

With `NC[C@@H]1O[C@H](O[C@H]2[C@@H](O)[C@H](O[C@@H]3[C@@H](O)[C@H](N)C[C@H](N)[C@H]3O[C@H]3O[C@H](CO)[C@@H](O)[C@H](O)[C@H]3N)O[C@@H]2CO)[C@H](N)[C@@H](O)[C@@H]1O` [paromomycin, reference compound], the pEC50 in the assay on CFTR-Y122X (Homo sapiens, HEK293, clone pursued for HTS assay development, read-out: EC50 (readthrough response of selected clone)) is 2.82.

Source of the values: patent US9884862B2, “Pyridopyrimidinedione derivatives” (Novartis AG, priority 2014, dated 2018).
